Laboratory results from paper PMC9436767, “Optical control of the β2-adrenergic receptor with opto-prop-2: A cis-active azobenzene analog of propranolol” (iScience, 2022).
Values joined by “and” are separate entries in the source; they are usually repeats but may differ in a detail not shown here. Equal entries are not always repeated.

Legend:
[1] = UV-Vis absorbance spectra; format: physicochemical; settings: 25 μM in HBSS buffer with 1% DMSO
Method: (§1) Solubility in buffer was explored for all compounds using nephelometry ([Bevan and Lloyd, 2000]) and these studies indicate good solubility of all azobenzene photoswiches up to at least 100 μM (Figure S1). […] For all compounds, 360 nm induces a large change in absorbance spectrum compared with the non-illuminated (dark) compounds (Table 1, Figure 2A, and S1), indicating photoisomerization to the cis-isomer. The absorbance peak (λmax) of Opto-prop-1-3 ranged between 319 and 347 nm for the trans-isomers and between 423 and 429 for the cis-isomers (Table 1), as is typical for azobenzene compounds ([Hauwert et al., 2018]). […] The photochemical conversions were determined by continuous illumination of the Opto-prop compounds with near UV-light (360 ± 20 nm) as 10-mM solutions in DMSO. Based on LCMS analysis, it was observed that all compounds obtained a high level of conversion to the cis-isomer with a photostationary state (PSS) of >88 area % cis-isomer (i.e. PSScis; Table 1). Subsequent back-switching to PSStrans with 434 nm maintained 22–29 area % cis-isomer (Table 1). The thermal relaxation of the PSScis state of the photoswitchable ligands was monitored over time by measuring absorbance at 254 nm. Only minor thermal relaxation to the trans-isomer could be detected at 20°C (not shown). An estimate of the relaxation rate at 20 °C was determined using a method by Priimagi et al. ([Ahmed et al., 2017]), which was performed in Hanks’ balanced salt solution (HBSS) using increased temperatures to enhance the speed of thermal relaxation. The Opto-prop ligands are all very stable as cis-isomer after illumination, with thermal relaxation half-lives of >10 days at 20 °C (See Table 1 and Figure S1).
UV-Vis spectra were obtained using a Thermo-scientific Evolution 201 PC spectrophotometer. Illumination was executed using a Sutter instruments Lambda LS with a 300 Watt full-spectrum lamp connected to a Sutter instruments Lambda 10-3 optical filter changer equipped with 360 ± 20 nm, 400 ± 5 nm, 434 ± 9 nm and 460 ± 5 nm filters. The light intensity is 0.93 mW/mm^2 using the 360 ± 20 nm filter, 0.22 mW/mm^2 using the 400 ± 5 nm filter, 0.79 mW/mm^2 for the 434 ± 9 nm filter and 0.26 mW/mm^2 for the 460 ± 5 nm filter as measured using a Thorlabs PM16-401 power meter.
For the determination of the UV-Vis spectra shown in Figure 2A, compounds (25 μM in 1% DMSO/HBSS buffer) were illuminated in Hellma Suprasil quartz 114-QS cuvettes with either a 360, 400, 434 or 460 nm filter for the indicated time. For the determination of PSScis and PSStrans states by UV spectroscopy (Figures S1D–S1F), a solution of the compound in 1% DMSO/HBSS buffer (25 μM) in a vial was illuminated to PSS cis with 360 nm (typically 4–5 min) and subsequently to PSS trans with 434 nm (typically 2–5 min). UV spectra were recorded.

[2] = PSScis and PSStrans by LC analysis; format: physicochemical; settings: LCMS area at isosbestic wavelength
Method: as §1
For the determination of PSScis and PSStrans values by LC analysis (Table 1), a solution of the compound in DMSO (10 mM) was illuminated to PSScis with 360 nm and subsequently to PSStrans with 434 nm. PSS aliquots were withdrawn, diluted with MeCN and subjected to LCMS analysis with the corresponding isosbestic points wavelength: 278, 263 and 308 nm for Opto-prop-1-3, respectively.

[3] = Cis-to-trans thermal relaxation, Arrhenius extrapolation; format: physicochemical; settings: PSScis sample 25 μM in HBSS buffer with 1% DMSO; Arrhenius extrapolation to 20 °C
Method: as §1
Cis-to-trans thermal relaxations were performed in the dark at 25 μM of the PSS360 state of the Opto-prop-1, -2 or -3 in HBSS buffer with 1% DMSO at various temperatures (60°C, 70°C and 80°C). Absorbance was repeatedly measured at 320, 320 and 347 nm for Opto-prop-1, -2 or -3, respectively, with 60 s intervals.

β2-AR [4] = molecular target: T1, β2-AR (Homo sapiens, UniProt P07550); assay: Conformational β2-AR BRET sensor in HEK293A cells
Target sequence in this assay (P07550 1-369): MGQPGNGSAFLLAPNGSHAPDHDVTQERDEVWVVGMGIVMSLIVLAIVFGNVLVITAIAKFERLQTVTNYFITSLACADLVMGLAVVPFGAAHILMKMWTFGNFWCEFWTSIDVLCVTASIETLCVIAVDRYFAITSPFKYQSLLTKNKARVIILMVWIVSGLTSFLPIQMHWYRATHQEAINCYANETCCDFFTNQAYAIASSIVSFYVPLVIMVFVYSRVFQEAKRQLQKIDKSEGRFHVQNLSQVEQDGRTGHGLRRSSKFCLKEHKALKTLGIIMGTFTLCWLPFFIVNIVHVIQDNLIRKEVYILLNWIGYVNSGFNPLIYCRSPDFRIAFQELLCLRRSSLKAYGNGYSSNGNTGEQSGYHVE
Method: The next day, cells were washed with HBSS and incubated with a 1/1000 stock solution of furimazine. […] Wells pre-incubated with 0.1% DMSO/HBSS control were treated with vehicle control.
Raw BRET ratios were defined as acceptor emission/donor emission.
Antagonist pKB values were calculated using the agonist potency and concentration together with the antagonist IC50 values, using the Cheng-Prusoff equation.

[5] = Time-resolved light-induced isomerization by 1H NMR and LCMS
Excerpt: The kinetic properties of light-induced isomer switching were further characterized using these wavelengths. Switching was monitored by ^1H NMR (Figures 2B and 2D) and LCMS (Figures 2C and 2E) analyses in tandem. The ^1H NMR signal of the ortho C-H proton adjacent to the ether function was selected as a clearly resolved signal to quantify the level of isomerization (Figure 2D).
NMR, LC and UV-Vis spectra were plotted in GraphPad Prism 8 and were visualized by fitting the data to a second order polynomial with a smooth function, using 4 neighboring data points. […] For the time-resolved isomerization experiments, integration of the peak areas was performed with Shimadzu and MestreNova software for LC and NMR integration, respectively. The normalized peak areas over time were fitted by non-linear regression in GraphPad Prism 8 using a one-phase exponential model which yields the t1/2 value of the isomerization reaction and the extrapolated PSS (i.e. the asymptote).

β2-AR [6] = molecular target: T1, β2-AR; assay: NanoBiT complementation: β-arrestin2 recruitment to β2-AR, Schild analysis
Target sequence in this assay (P07550 whole entry): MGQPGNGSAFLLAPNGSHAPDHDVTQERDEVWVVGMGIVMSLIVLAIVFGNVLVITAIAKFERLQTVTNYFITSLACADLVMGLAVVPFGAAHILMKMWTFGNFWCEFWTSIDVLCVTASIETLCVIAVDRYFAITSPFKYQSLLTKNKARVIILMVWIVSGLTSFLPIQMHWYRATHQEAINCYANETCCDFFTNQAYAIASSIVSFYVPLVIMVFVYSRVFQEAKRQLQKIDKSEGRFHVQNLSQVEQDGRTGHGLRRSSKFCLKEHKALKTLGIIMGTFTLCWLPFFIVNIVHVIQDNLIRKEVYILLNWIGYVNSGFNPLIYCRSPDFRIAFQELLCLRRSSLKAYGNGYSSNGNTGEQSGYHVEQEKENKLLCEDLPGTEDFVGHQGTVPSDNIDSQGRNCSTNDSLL
Method: Mixed stable populations of HEK-β2AR-β-arrestin2, or HEK-β2AR-mGs cells were generated by selection in G418 (0.8 mg^−1) and zeocin (200 μg mL^−1) for 7–10 days, in DMEM, supplemented with 10% fetal bovine serum (FBS; Sigma Aldrich).
The antagonist affinity (KD) was then estimated by a Schild plot of log [CR-1] against log [B] (the antagonist concentration) using the relationship: Log[CR−1]=Log[B]−LogKD.

β1-AR = β1-AR (Homo sapiens, UniProt P08588); assay: [3H]DHA radioligand displacement on membranes of HEK293T cells expressing β1-AR; settings: for Ki: β1-AR
Method: (§2) Membranes of HEK293T-cells transiently expressing the receptor of interest were co-incubated with the tritiated β1/β2-AR antagonist dihydroalprenolol ([^3H]DHA, Figure S2 depicts saturation binding experiments), together with increasing concentrations of the competing unlabeled ligand.
(§3) Two million HEK293T cells were seeded in a 10cm^2 dish and were transiently transfected the next day with 1 μg human β1-AR or the β2-AR plasmid DNA, 4 μg empty pcDEF3 plasmid DNA and 30 μg linear 25 kDa polyethyleneimine (PEI; Polysciences Warrington, USA) in a 150 mM NaCl solution. […] Two days after transfection, cells were resuspended and washed (3 times) with PBS and pelleted by centrifugation steps at 1500 g. After the final centrifugation step, cell pellets were reconstituted into ice-cold Tris-HCl buffer (15 mM, supplemented with 0.3 mM EDTA and 2 mM MgCl2 at pH7.4) and dounce-homogenised by plunging the pestle 10 times with 1,500 rpm (Tamson, the Netherlands). The homogenates were frozen and thawed twice using liquid nitrogen, after which the membranes were isolated using an ultra-centrifuge L70 at 40,000 g (Beckman Coulter, USA). Cell pellets were then washed and reconstituted in ice-cold 20 mM Tris-HCl buffer supplemented with 250 mM Sucrose at pH 7.4. Finally, the membrane samples where homogenized using a 23-gauge needle, snap-frozen with liquid nitrogen and stored until further experimentation at −80 °C. The protein content was determined using a BCA protein assay kit (Thermo Scientific, USA).
(§4) On the day of the experiment 0.25–0.5 μg membranes expressing either the β1-AR or the β2-AR, were co-incubated with [^3H]DHA (Perkin Elmer, USA) and increasing concentrations unlabeled ligand in HBSS buffer (Thermo Scientific, with Ca^2+ and Mg^2+) supplemented with 0.1% BSA for 1 h at 25 °C under gentile agitation. Either a 4 nM or 1 nM concentration of [^3H]DHA was used in combination with membranes expressing either the β1-AR or β2-AR, respectively. Binding reactions were terminated by filtration over a PEI coated GF/C filter (Perkin Elmer) using ice-cold 50 mM Tris-HCl buffer with 500 mM NaCl at pH 7.4. GF/C plates were dried at 52 °C and filter bound [^3H]DHA was quantified by adding 25 μL/well Microscint-O scintillation liquid and counting luminescence using the Wallac Microbeta counter, as described before.
(§5) IC50 values were determined by fitting the concentration-dependent displacement of [^3H]DHA by unlabeled ligands, with a three-parameter sigmoidal model in GraphPad Prism. […] Competition binding graphs represent the pooled data of ≥3 experiments, normalized to the fitted top and bottom of the reference sigmoidal displacement curve of unlabeled DHA.

β2-AR [7] = molecular target: T1, β2-AR; assay: [3H]DHA radioligand displacement on membranes of HEK293T cells expressing β2-AR; settings: for Ki: β2-AR
Target sequence in this assay (P07550 whole entry): as above
Method: as §2, §3, §4, §5

[8] = fold difference between Ki of trans and Ki at PSScis
[9] = isomer state with higher affinity
[10] = pKi PSScis, illuminated to PSScis (360 nm) before experiment
[11] = pKi trans, without prior illumination (trans-isomer)

Chain of β1-AR (P08588 whole entry): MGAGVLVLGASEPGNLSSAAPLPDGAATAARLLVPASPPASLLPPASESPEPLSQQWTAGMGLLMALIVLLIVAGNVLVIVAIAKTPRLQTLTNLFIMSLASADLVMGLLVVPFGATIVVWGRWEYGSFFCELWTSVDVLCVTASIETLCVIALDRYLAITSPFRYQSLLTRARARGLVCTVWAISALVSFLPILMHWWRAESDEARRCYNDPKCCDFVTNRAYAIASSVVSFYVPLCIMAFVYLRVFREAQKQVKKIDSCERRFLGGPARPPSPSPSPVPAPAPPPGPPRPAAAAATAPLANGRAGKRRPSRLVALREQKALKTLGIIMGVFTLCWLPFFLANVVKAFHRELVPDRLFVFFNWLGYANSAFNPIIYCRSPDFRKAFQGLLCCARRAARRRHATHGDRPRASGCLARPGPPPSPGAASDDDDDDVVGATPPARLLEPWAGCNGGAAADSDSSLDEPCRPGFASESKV

CC(C)NCC(O)COc1cccc(N=Nc2ccccc2)c1 (stereo not shown) [Opto-prop-2]
λmax cis ([1]; cis-isomer): 424 nm | λmax trans ([1]; trans-isomer): 319 nm | PSScis (% cis-isomer) ([2]; 10 mM in DMSO after illumination with 360 nm): 92.8 ± 0.4 % cis-isomer | PSStrans (% cis-isomer) ([2]; 10 mM in DMSO, 360 nm then 434 nm): 26 % cis-isomer and 25.9 ± 0.4 % cis-isomer | t1/2 20°C (thermal relaxation of cis-isomer) [3]: >240 h | IC50 (β2-AR [4]): 31.6 nM | Kb (β2-AR [4]): 2 nM | isomerization half-life, 360 nm ([5]; 1H NMR, 10 mM in DMSO-d6): 4 min | isomerization half-life, 434 nm ([5]; 1H NMR, 10 mM in DMSO-d6): 3 min | cis-isomer at PSScis ([5]; 1H NMR, 360 nm, 10 mM in DMSO-d6): 86 mol% | cis-isomer at PSStrans ([5]; 1H NMR, 434 nm, 10 mM in DMSO-d6): 20 mol% | fitted cis-isomer at PSScis ([5]; LCMS, 360 nm): 94% | isomerization half-life to PSScis ([5]; LCMS, 360 nm): 4 min | fitted cis-isomer at PSStrans ([5]; LCMS, 434 nm): 23% | isomerization half-life to PSStrans ([5]; LCMS, 434 nm): 3 min | Kb (β2-AR [6]): 25.1 nM | slope of the Schild-plot, β-arrestin2 recruitment (β2-AR [6]; at PSScis, agonist isoprenaline): 0.9 | fold Ki trans vs PSScis at β1-AR (β1-AR; [8]): 21 fold | Active state at β1-AR (β1-AR; [9]): cis | Ki (β1-AR; [10]): 200 nM | Ki (β1-AR; [11]): 5010 nM | difference in binding affinity β2-AR vs β1-AR (β2-AR [7]; cis-isomer): 1.9 log unit | selectivity in binding β2-AR over β1-AR (β2-AR [7]; cis-isomer (PSScis)): 78 fold | fold Ki trans vs PSScis at β2-AR (β2-AR [7]; [8]): 587 fold | Active state at β2-AR (β2-AR [7]; [9]): cis | Ki (β2-AR [7]; [10]): 2.51 nM | Ki (β2-AR [7]; pKi at PSStrans, at PSStrans (434 nm back-switching)): 31.6 nM | Ki (β2-AR [7]; [11]): 1580 nM
